Measured values from ChEMBL document CHEMBL1148299 (J Med Chem, 2004).
pIC50, pKi: −log10 of the molar value.

Columns and labels:
[1] = (§1) Compound was tested for the inhibition of HIV-1 JV1083 clinical isolate in PBMC cultures; type: functional; conditions: Homo sapiens
[2] = target: Muscarinic acetylcholine receptor M3 (Homo sapiens, UniProt P20309); assay: Antagonistic activity against muscarinic M3 receptor; type: functional
Rattus norvegicus [3] = assay: Area under curve value 6 hr after po administration in rat; type: ADME, organism-based; design: time < 6 hr, route oral; concentration or dose not given beside the values; conditions: in vivo
[4] = (§2) Compound was tested for the inhibition of HIV-1 301657 clinical isolate in PBMC cultures; type: functional; conditions: Homo sapiens
[5] = (§3) Compound was tested for the inhibition of HIV-1 RU 570 clinical isolate in PBMC cultures; type: functional; conditions: Homo sapiens
[6] = (§4) Compound was tested for the inhibition of HIV-1 ADA-M clinical isolate in PBMC cultures; type: functional; conditions: Homo sapiens
[7] = target: T1, Muscarinic acetylcholine receptor M2 (Homo sapiens, UniProt P08172); assay: Antagonistic activity against Muscarinic acetylcholine receptor M2; type: functional
T1 sequence (P08172 whole entry): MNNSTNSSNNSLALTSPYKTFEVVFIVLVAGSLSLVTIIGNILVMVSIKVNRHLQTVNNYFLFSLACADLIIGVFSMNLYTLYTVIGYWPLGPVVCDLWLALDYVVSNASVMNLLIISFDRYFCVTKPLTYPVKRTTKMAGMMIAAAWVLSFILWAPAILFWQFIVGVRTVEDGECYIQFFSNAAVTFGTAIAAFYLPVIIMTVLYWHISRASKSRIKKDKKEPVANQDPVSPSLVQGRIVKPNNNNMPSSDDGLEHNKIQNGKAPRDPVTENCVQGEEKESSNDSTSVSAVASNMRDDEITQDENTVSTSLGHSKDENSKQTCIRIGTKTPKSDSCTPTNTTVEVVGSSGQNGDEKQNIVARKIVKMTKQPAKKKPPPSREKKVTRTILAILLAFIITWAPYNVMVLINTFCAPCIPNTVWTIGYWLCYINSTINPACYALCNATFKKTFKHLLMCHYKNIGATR

[8] = target: C-C chemokine receptor type 5 (Homo sapiens, UniProt P51681); assay: Antagonistic activity against C-C chemokine receptor type 5; type: functional
[9] = (§5) Compound was tested for the inhibition of HIV-1 JrFL clinical isolate in PBMC cultures; type: functional; conditions: Homo sapiens
[10] = Compound was tested for inhibiting the entry of replication deffective HIV-1 (YU-2) in to […] cells; type: functional, cell-based; conditions: Homo sapiens
[11] = target: T2, Muscarinic acetylcholine receptor M1 (Homo sapiens, UniProt P11229); assay: Antagonistic activity against muscarinic M1 receptor; type: functional
T2 sequence (P11229 whole entry): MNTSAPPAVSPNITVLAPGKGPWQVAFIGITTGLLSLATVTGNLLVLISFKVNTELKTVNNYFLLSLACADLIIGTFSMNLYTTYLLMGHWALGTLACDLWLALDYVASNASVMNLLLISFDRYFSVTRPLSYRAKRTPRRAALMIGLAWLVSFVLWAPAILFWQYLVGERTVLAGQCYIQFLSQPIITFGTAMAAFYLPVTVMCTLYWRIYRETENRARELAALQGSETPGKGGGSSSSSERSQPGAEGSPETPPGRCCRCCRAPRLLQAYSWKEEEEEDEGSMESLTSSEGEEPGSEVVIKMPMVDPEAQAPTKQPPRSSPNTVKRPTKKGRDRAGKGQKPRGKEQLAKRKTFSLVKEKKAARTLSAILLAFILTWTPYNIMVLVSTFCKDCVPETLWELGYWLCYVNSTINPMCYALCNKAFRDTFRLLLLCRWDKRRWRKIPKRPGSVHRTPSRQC

[12] = Cmax 24 hr after 2 mg/kg oral administration in rats; type: ADME, organism-based; design: dose 2 mg/kg, route oral; conditions: rat, in vivo
Homo sapiens [13] = organism: Homo sapiens; assay: as §1; type: functional
[14] = Cmax 24 hr after 2 mg/kg oral administration in monkeys; type: ADME, organism-based; design: dose 2 mg/kg, route oral; conditions: cercopithecidae, in vivo
Homo sapiens [15] = organism: Homo sapiens; assay: as §2; type: functional
[16] = Half-life 24 hr after 2 mg/kg iv administration in monkeys; type: ADME, organism-based; design: dose 2 mg/kg, route intravenous; conditions: cercopithecidae, in vivo
[17] = Half-life 24 hr after 2 mg/kg iv administration in rats; type: ADME, organism-based; design: dose 2 mg/kg, route intravenous; conditions: rat, in vivo
Homo sapiens [18] = organism: Homo sapiens; assay: as §3; type: functional
Homo sapiens [19] = organism: Homo sapiens; assay: as §4; type: functional
[20] = Bioavailability after administration of 2 mg/kg in rats; type: ADME, organism-based; conditions: rat, in vivo, read-out: Bioavailabiility
Rattus norvegicus [21] = assay: Area under curve value 24 hr after 2 mg/kg oral administration in rats; type: ADME, organism-based; design: time < 24 hr, dose 2 mg/kg, route oral; conditions: in vivo
Homo sapiens [22] = organism: Homo sapiens; assay: as §5; type: functional
Rattus norvegicus [23] = assay: Area under curve value 24 hr after 2 mg/kg iv administration in rats; type: ADME, organism-based; design: time < 24 hr, dose 2 mg/kg, route intravenous; conditions: in vivo
[24] = Area under curve value 24 hr after 2 mg/kg oral administration in monkeys; type: ADME, organism-based; design: time < 24 hr, dose 2 mg/kg, route oral; conditions: cercopithecidae, in vivo
[25] = Area under curve value 24 hr after 2 mg/kg iv administration in monkeys; type: ADME, organism-based; design: time < 24 hr, dose 2 mg/kg, route intravenous; conditions: cercopithecidae, in vivo
[26] = Bioavailability in monkey (dose 2 mg/kg); type: ADME, organism-based; conditions: cercopithecidae, in vivo
[27] = Cmax 24 hr after 10 mg/kg oral administration in rats; type: ADME, organism-based; design: dose 10 mg/kg, route oral; conditions: rat, in vivo
[28] = Half-life 24 hr after 10 mg/kg iv administration in rats; type: ADME, organism-based; design: dose 10 mg/kg, route intravenous; conditions: rat, in vivo
[29] = Bioavailability after administration of 10 mg/kg in rats; type: ADME, organism-based; conditions: rat, in vivo, read-out: Bioavailabiility
Rattus norvegicus [30] = assay: Area under curve value 24 hr after 10 mg/kg iv administration in rats; type: ADME, organism-based; design: time < 24 hr, dose 10 mg/kg, route intravenous; conditions: in vivo
Rattus norvegicus [31] = assay: Area under curve value 24 hr after 10 mg/kg oral administration in rats; type: ADME, organism-based; design: time < 24 hr, dose 10 mg/kg, route oral; conditions: in vivo

Sequence of Muscarinic acetylcholine receptor M3 (P20309 whole entry): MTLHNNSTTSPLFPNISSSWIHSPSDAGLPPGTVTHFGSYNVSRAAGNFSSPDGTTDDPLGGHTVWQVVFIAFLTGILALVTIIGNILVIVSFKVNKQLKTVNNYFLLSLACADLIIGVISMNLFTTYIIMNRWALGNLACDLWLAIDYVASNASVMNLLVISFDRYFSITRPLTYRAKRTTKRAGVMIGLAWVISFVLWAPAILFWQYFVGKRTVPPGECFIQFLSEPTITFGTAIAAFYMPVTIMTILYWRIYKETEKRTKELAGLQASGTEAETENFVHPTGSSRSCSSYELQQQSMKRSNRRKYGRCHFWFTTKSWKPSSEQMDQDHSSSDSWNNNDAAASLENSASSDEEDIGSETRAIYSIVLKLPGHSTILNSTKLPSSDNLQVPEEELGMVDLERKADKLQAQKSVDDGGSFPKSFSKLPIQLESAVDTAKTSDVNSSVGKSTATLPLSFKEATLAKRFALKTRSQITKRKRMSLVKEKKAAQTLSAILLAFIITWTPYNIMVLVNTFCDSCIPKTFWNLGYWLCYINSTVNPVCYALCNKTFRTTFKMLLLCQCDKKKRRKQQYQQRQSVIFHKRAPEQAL
Sequence of C-C chemokine receptor type 5 (P51681 whole entry): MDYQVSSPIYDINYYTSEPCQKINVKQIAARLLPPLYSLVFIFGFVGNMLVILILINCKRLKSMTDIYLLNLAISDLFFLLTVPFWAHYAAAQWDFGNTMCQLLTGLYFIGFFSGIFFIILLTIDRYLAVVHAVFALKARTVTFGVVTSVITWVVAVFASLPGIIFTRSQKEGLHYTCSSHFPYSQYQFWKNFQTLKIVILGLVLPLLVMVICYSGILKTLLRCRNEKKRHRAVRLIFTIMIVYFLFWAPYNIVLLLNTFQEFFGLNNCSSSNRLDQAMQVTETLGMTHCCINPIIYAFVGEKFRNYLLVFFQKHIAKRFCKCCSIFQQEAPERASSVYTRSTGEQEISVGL

CC[C@@H](c1ccc(C(F)(F)F)cc1)N1CCN(C2(C)CCN(C(=O)c3c(C)ncnc3C)CC2)C[C@@H]1C
IC90 [1]: 18 nM
pKi [2]: 5.04
AUC 0-6h (Rattus norvegicus [3]): 7.31 µg·h/mL
IC90 [4]: 16 nM
IC90 [5]: 1000 nM
IC90 [6]: 21 nM
pKi [7]: 5.32
pKi [8]: 8.28
IC90 [9]: 19 nM
pIC50 [10]: 9.74
pKi [11]: 5.41

Cc1ncnc(C)c1C(=O)N1CCC(C)(N2CCN([C@@H](C)c3ccc(C(F)(F)F)cc3)[C@@H](C)C2)CC1
IC90 [1]: 31 nM
pKi [2]: 6.15
AUC 0-6h (Rattus norvegicus [3]): 6.21 µg·h/mL
IC90 [4]: 13 nM
IC90 [5]: > 1000 nM
IC90 [6]: 19 nM
IC90 [9]: 40 nM
pIC50 [10]: 9.41
pKi [11]: 6.24

Cc1ncnc(C)c1C(=O)N1CCC(C)(N2CCN([C@@H](CC3CC3)c3ccc(C(F)(F)F)cc3)[C@@H](C)C2)CC1
AUC 0-6h (Rattus norvegicus [3]): 5.9 µg·h/mL
pKi [7]: 5.45
pKi [8]: 8.80
pIC50 [10]: 9.10
pKi [11]: 5.72

CCC[C@@H](c1ccc(C(F)(F)F)cc1)N1CCN(C2(C)CCN(C(=O)c3c(C)ncnc3C)CC2)C[C@@H]1C
Cmax [12]: 0.311 µg/mL
IC90 (Homo sapiens [13]): 0.27 nM
Cmax [14]: 0.24 µg/mL
pKi [2]: < 5.28
AUC 0-6h (Rattus norvegicus [3]): 4.6 µg·h/mL
IC90 (Homo sapiens [15]): 0.09 nM
half-life [16]: 6.3 h
half-life [17]: 15.5 h
IC90 (Homo sapiens [18]): 0.43 nM
IC90 (Homo sapiens [19]): 0.03 nM
bioavailability [20]: 72%
pKi [7]: 5.32
AUC 0-24h (Rattus norvegicus [21]): 3.27 µg·h/mL
pKi [8]: 8.96
IC90 (Homo sapiens [22]): 0.01 nM
pIC50 [10]: 9.46
pKi [11]: 5.22
AUC 0-24h (Rattus norvegicus [23]): 4.55 µg·h/mL
AUC 0-24h [24]: 1.76 µg·h/mL
AUC 0-24h [25]: 2.67 µg·h/mL
bioavailability [26]: 66%

Cc1ncnc(C)c1C(=O)N1CCC(C)(N2CCN([C@@H](Cc3ccccc3)c3ccc(C(F)(F)F)cc3)[C@@H](C)C2)CC1
IC90 [1]: 0.25 nM
pKi [2]: < 5.28
AUC 0-6h (Rattus norvegicus [3]): 2.03 µg·h/mL
IC90 [4]: 0.6 nM
IC90 [5]: 4 nM
IC90 [6]: 0.04 nM
pKi [7]: < 5.24
pKi [8]: 8.85
IC90 [9]: 0.19 nM
pIC50 [10]: 9.89
pKi [11]: < 5.41

Cc1ncnc(C)c1C(=O)N1CCC(C)(N2CCN([C@@H](CCC(F)(F)F)c3ccc(C(F)(F)F)cc3)[C@@H](C)C2)CC1
AUC 0-6h (Rattus norvegicus [3]): 4.6 µg·h/mL
pKi [7]: < 5.17
pIC50 [10]: 8.84
pKi [11]: < 5.43

CCO/N=C(\c1ccc(Br)cc1)C1CCN(C2(C)CCN(C(=O)c3c(C)cc[n+]([O-])c3C)CC2)CC1 [ANCRIVIROC]
IC90 [1]: 10 nM
IC90 [4]: 43 nM
IC90 [5]: 400 nM
IC90 [6]: 25 nM
IC90 [9]: 19 nM

COC[C@@H](c1ccc(C(F)(F)F)cc1)N1CCN(C2(C)CCN(C(=O)c3c(C)ncnc3C)CC2)C[C@@H]1C [VICRIVIROC]
IC90 [1]: 4.9 nM
Cmax [14]: 0.67 µg/mL
Cmax [27]: 2.3 µg/mL
AUC 0-6h (Rattus norvegicus [3]): 6.9 µg·h/mL
IC90 [4]: 1.8 nM
half-life [16]: 3.5 h
IC90 [5]: 10 nM
IC90 [6]: 2.8 nM
pKi [7]: < 5.00
half-life [28]: 8 h
bioavailability [29]: 100%
IC90 [9]: 3.3 nM
pIC50 [10]: 9.34
pKi [11]: < 5.00
AUC 0-24h [24]: 1.99 µg·h/mL
AUC 0-24h (Rattus norvegicus [30]): 21 µg·h/mL
AUC 0-24h [25]: 2.24 µg·h/mL
bioavailability [26]: 89%
AUC 0-24h (Rattus norvegicus [31]): 21 µg·h/mL
